PMC8508903, “Novel Dipyridinium Lipophile-Based Ionic Liquids Tethering Hydrazone Linkage: Design, Synthesis and Antitumorigenic Study” (International Journal of Molecular Sciences, 2021)
Where a name gives a salt, the structure may show the parent alone.

Experiments:
[1] = test system: H1299 lung cancer cells; experiment: MTT cell viability assay, H1299; assay type: cell-based, human; settings: mean of three independent experiments (N = 9)
Procedure: (§1) To evaluate the effect of the examined series on the viability of different lung cancer cells, MTT assay was conducted after exposing A549, H1299, and H661 cell lines to increasing concentrations of each compound for 48 h. […] Table 2 and Supplementary Figure S92 (see Supplementary Materials) show the 50% inhibitory concentration (IC50) values for the compounds under investigation in A549, H1299, and H661 lung cancer cells.
(§2) The human lung cancer cell lines A549, H1299 and H661 and the normal cells dermal fibroblasts were obtained from the American Type Culture Collection ATCC. Cells were cultured as a monolayer at seeding density of 8 × 10^3 cells per well in high glucose Dulbecco’s modified eagle medium (DMEM) (Invitrogen, USA), as previously described. The in vitro assessment of the antitumorigenic activities related to the studied compounds was undertaken using the 3-(4,5-dimethylthiazol-2yl)-2,5-diphenyl tetrazolium bromide (MTT) colorimetric assay, as previously reported. The compounds under investigation were tested in three triplicates of each concentration in three independent assays for a total of nine replicates. Both positive (cisplatin) and negative (untreated culture) controls were applied under the same experimental conditions. Cells were cultured for 48 h at 37 °C in a 5% CO2 incubator. Afterwards, MTT assay was carried out where viable cell count was determined based on the amount of formazan crystals, as verified by the absorbance at 490 nm.
(§3) Data was analyzed by Graphpad Prism software (Graphpad Software Inc. Jolla, CA, USA) for the determination of IC50 value. All data were expressed as the average of triplicate experiments.

[2] = test system: A549 lung cancer cells; experiment: MTT cell viability assay, A549; assay type: cell-based, human; settings: mean of three independent experiments (N = 9)
Procedure: as §1, §2, §3

[3] = test system: H661 lung cancer cells; experiment: MTT cell viability assay, H661; assay type: cell-based, human; settings: mean of three independent experiments (N = 9)
Procedure: as §1, §2, §3

[4] = test system: human dermal fibroblasts; experiment: MTT cell viability assay, normal dermal fibroblasts; assay type: cell-based; settings: 48 h, noncancerous human dermal fibroblasts
Procedure: as §1, §2, §3

| SMILES | IC50 ([1]; 48 h) | IC50 ([2]; 48 h) | IC50 ([3]; 48 h) | IC50 [4] | melting point | IC50 ([1]; Homo sapiens, NCI-H1299, 48 h) | IC50 ([2]; Homo sapiens, A549, 48 h) | IC50 ([3]; Homo sapiens, NCI-H661, 48 h) | IC50 ([4]; Homo sapiens, Fibroblast) |
| --- | --- | --- | --- | --- | --- | --- | --- | --- | --- |
| CCCCCCCCCCCCCCCCCC[n+]1ccc(C(=O)NN=Cc2ccc[n+](CCCCCCCCCCCCCCCCCC)c2)cc1 [Compound 35, 1-Octadecyl-3-((2-(1-octadecylpyridin-1-ium-4-carbonyl)hydrazono)methyl)pyridin-1-ium Tetrafluoroborate] | 399 µM | 421 µM | 382 µM | > 1000 µM | – | – | – | – | – |
| CCCCCCCC[n+]1ccc(C(=O)N/N=C/c2ccc[n+](CCCCCCCC)c2)cc1 (as salt: phosphate) [Compound 16, 1-Octyl-3-((2-(1-octylpyridin-1-ium-4-carbonyl)hydrazono)methyl)pyridin-1-ium Hexafluorophosphate] | – | – | – | – | 58 to 59 °C | – | – | – | – |
| N.N.[Cl][Pt][Cl] [Cisplatin, cisplatin, reference compound] | 18 µM | 23 µM | 32 µM | > 100 µM | – | – | – | – | – |
| CCCCCCCC[n+]1ccc(C(=O)NN=Cc2ccc[n+](CCCCCCCC)c2)cc1 [Compound 18, 1-Octyl-3-((2-(1-octylpyridin-1-ium-4-carbonyl)hydrazono)methyl)pyridin-1-ium Trifluoroacetate] | 71 µM | 78.5 µM | 74.5 µM | > 300 µM | – | – | – | – | – |
| CCCCCCCCCCCC[n+]1ccc(C(=O)N/N=C/c2ccc[n+](CCCCCCCCCCCC)c2)cc1 [Compound 26, 11-Dodecyl-3-((2-(1-dodecylpyridin-1-ium-4-carbonyl)hydrazono)methyl)pyridin-1-ium Tetrafluoroborate] | – | – | – | – | – | 39.3 µM | 44 µM | 40.4 µM | > 300 µM |
| CCCCCCCCCCCCCCCC[n+]1ccc(C(=O)NN=Cc2ccc[n+](CCCCCCCCCCCCCCCC)c2)cc1 [Compound 32, 1-Hexadecyl-3-((2-(1-hexadecylpyridin-1-ium-4-carbonyl)hydrazono)methyl)pyridin-1-ium Tetrafluoroborate] | 108 µM | 114 µM | 104 µM | – | – | – | – | – | > 300 µM |
| CCCCCCCCCCCCCC[n+]1ccc(C(=O)NN=Cc2ccc[n+](CCCCCCCCCCCCCC)c2)cc1 [Compound 30, 1-Tetradecyl-3-((2-(1-tetradecylpyridin-1-ium-4-carbonyl)hydrazono)methyl)pyridin-1-ium Trifluoroacetate] | 38.5 µM | 38.6 µM | 41.9 µM | > 300 µM | – | – | – | – | – |
| CCCCCCCCCCCCCCCC[n+]1ccc(C(=O)NN=Cc2ccc[n+](CCCCCCCCCCCCCCCC)c2)cc1 [Compound 14, 1-Hexadecyl-3-((2-(1-hexadecylpyridin-1-ium-4-carbonyl)hydrazono)methyl)pyridin-1-ium Iodide] | 10.1 µM | 7.11 µM | 11.2 µM | > 300 µM | – | – | – | – | – |
| CCCCCCCCC[n+]1ccc(C(=O)NN=Cc2ccc[n+](CCCCCCCCC)c2)cc1 [Compound 21, 1-Nonyl-3-((2-(1-nonylpyridin-1-ium-4-carbonyl)hydrazono)methyl)pyridin-1-ium Trifluoroacetate] | 28 µM | 33.5 µM | 19.4 µM | > 300 µM | – | – | – | – | – |
| CCCCCCCCCCCCCC[n+]1ccc(C(=O)NN=Cc2ccc[n+](CCCCCCCCCCCCCC)c2)cc1 [Compound 29, 1-Tetradecyl-3-((2-(1-tetradecylpyridin-1-ium-4-carbonyl)hydrazono)methyl)pyridin-1-ium Tetrafluoroborate] | – | – | – | – | – | 44.6 µM | 42.1 µM | 46.8 µM | > 300 µM |
| CCCCCCCCCC[n+]1ccc(C(=O)NN=Cc2ccc[n+](CCCCCCCCCC)c2)cc1 [Compound 24, 1-Decyl-3-((2-(1-decylpyridin-1-ium-4-carbonyl)hydrazono)methyl)pyridin-1-ium Trifluoroacetate] | 19 µM | 20 µM | 18.1 µM | > 300 µM | – | – | – | – | – |
| CCCCCCCCCCCC[n+]1ccc(C(=O)NN=Cc2ccc[n+](CCCCCCCCCCCC)c2)cc1.[I-].[I-] [Compound 12, 1-Dodecyl-3-((2-(1-dodecylpyridin-1-ium-4-carbonyl)hydrazono)methyl)pyridin-1-ium Iodide] | 30.1 µM | 26.9 µM | 29.8 µM | > 300 µM | 63 to 65 °C | – | – | – | – |
| CCCCCCCC[n+]1ccc(C(=O)NN=Cc2ccc[n+](CCCCCCCC)c2)cc1 [Compound 17, 1-Octyl-3-((2-(1-octylpyridin-1-ium-4-carbonyl)hydrazono)methyl)pyridin-1-ium Tetrafluoroborate] | – | – | – | – | – | 66 µM | 69.1 µM | 61.2 µM | > 300 µM |
| CCCCCCCCCCCCCC[n+]1ccc(C(=O)NN=Cc2ccc[n+](CCCCCCCCCCCCCC)c2)cc1 [Compound 13, 1-Tetradecyl-3-((2-(1-tetradecylpyridin-1-ium-4-carbonyl)hydrazono)methyl)pyridin-1-ium Iodide] | 38 µM | 36.8 µM | 38.2 µM | > 300 µM | – | – | – | – | – |
| CCCCCCCC[n+]1ccc(C(=O)NN=Cc2ccc[n+](CCCCCCCC)c2)cc1.[I-].[I-] [Compound 9, 1-Octyl-3-((2-(1-octylpyridin-1-ium-4-carbonyl)hydrazono)methyl)pyridin-1-ium Iodide] | 64.3 µM | 75.3 µM | 74.2 µM | > 300 µM | 82 to 84 °C | – | – | – | – |
| CCCCCCCCCC[n+]1ccc(C(=O)NN=Cc2ccc[n+](CCCCCCCCCC)c2)cc1.[I-].[I-] [Compound 11, 1-Decyl-3-((2-(1-decylpyridin-1-ium-4-carbonyl)hydrazono)methyl)pyridin-1-ium Iodide] | 19 µM | 15.1 µM | 23.5 µM | > 300 µM | 70 to 72 °C | – | – | – | – |
| CCCCCCCCCCCC[n+]1ccc(C(=O)NN=Cc2ccc[n+](CCCCCCCCCCCC)c2)cc1 [Compound 27, 1-Dodecyl-3-((2-(1-dodecylpyridin-1-ium-4-carbonyl)hydrazono)methyl)pyridin-1-ium Trifluoroacetate] | 12.1 µM | – | 10.5 µM | – | – | – | 14.3 µM | – | > 300 µM |
| CCCCCCCCC[n+]1ccc(C(=O)NN=Cc2ccc[n+](CCCCCCCCC)c2)cc1 [Compound 20, 1-Nonyl-3-((2-(1-nonylpyridin-1-ium-4-carbonyl)hydrazono)methyl)pyridin-1-ium Tetrafluoroborate] | 32.6 µM | – | 33 µM | – | – | – | 31.4 µM | – | > 300 µM |
| CCCCCCCCCC[n+]1ccc(C(=O)N/N=C/c2ccc[n+](CCCCCCCCCC)c2)cc1 (as salt: phosphate) [Compound 22, 1-Decyl-3-((2-(1-decylpyridin-1-ium-4-carbonyl)hydrazono)methyl)pyridin-1-ium Hexafluorophosphate] | – | – | – | – | 42 to 44 °C | – | – | – | – |
| CCCCCCCCCCCCCCCC[n+]1ccc(C(=O)NN=Cc2ccc[n+](CCCCCCCCCCCCCCCC)c2)cc1 [Compound 33, 1-Hexadecyl-3-((2-(1-hexadecylpyridin-1-ium-4-carbonyl)hydrazono)methyl)pyridin-1-ium Trifluoroacetate] | 92.3 µM | 87.8 µM | 100 µM | > 300 µM | – | – | – | – | – |
| CCCCCCCCCCCCCCCCCC[n+]1ccc(C(=O)NN=Cc2ccc[n+](CCCCCCCCCCCCCCCCCC)c2)cc1 [Compound 36, 1-Octadecyl-3-((2-(1-octadecylpyridin-1-ium-4-carbonyl)hydrazono)methyl)pyridin-1-ium Trifluoroacetate] | 947 µM | 920 µM | 904 µM | > 1000 µM | – | – | – | – | – |
